Structures are written as SMILES. Like-named read-outs stand apart in the source and are kept apart here.

In one data set the test system is Plasmodium falciparum. As to the kind of experiment: [3H]-Hypoxanthine incorporation assay (orthogonal, radiometric). The class given is cell-based. As for the experimental part:
Cultures of 3D7, a P. falciparum chloriquine sensitive reference strain, were maintained in a 5% suspension of A+ human red blood cells (obtained from East of Scotland Blood Transfusion Service, Ninewells Hospital, Dundee, UK) cultured in RPMI 1640 medium (pH 7.3) supplemented with 0.5% Albumax II (Gibco Life Technologies, San Diego, CA, USA), 12 mM sodium bicarbonate, 0.2 mM hypoxanthine, and 20 mg/l gentamicin at 37 °C, in a humidified atmosphere of 1% O2, 3% CO2 with a balance of nitrogen. Growth inhibition was quantified using a fluorescence assay utilizing the binding of SYBR Green I to double stranded DNA, which emits a fluorescent signal at 528 nm after excitation at 485 nm. The SYBR Green assay system was adapted to maximize robustness and to align with available automation systems. The Prestwick Library then used as a pilot screen to validate the performance of the optimized assay. […] Single point screens were carried out, and the potency of compounds of interest was determined in duplicate on two independent occasions. A 96-well [^3H]-Hypoxanthine incorporation assay was also developed as a secondary assay in order to validate key compounds from each hit series in an orthogonal platform.
The traditionally used [^3H]-hypoxanthine incorporation assay is labour intensive, low throughput and requires the use of radio-labelled hypoxanthine.

In data set [1] the test system is Plasmodium falciparum 3D7. As to the kind of experiment: microbe, parasite or virus in culture. As for the experimental part:
Growth inhibition was quantified using a fluorescence assay utilizing the binding of SYBR Green I to double stranded DNA, which emits a fluorescent signal at 528 nm after excitation at 485 nm. The SYBR Green assay system was adapted to maximize robustness and to align with available automation systems. The Prestwick Library then used as a pilot screen to validate the performance of the optimized assay. […] Single point screens were carried out, and the potency of compounds of interest was determined in duplicate on two independent occasions. A 96-well [^3H]-Hypoxanthine incorporation assay was also developed as a secondary assay in order to validate key compounds from each hit series in an orthogonal platform.
(§1) All data were processed using IDBS ActivityBase. […] The formula used to calculate Z’ is 1-3×(StDev_high+StDev_low)/ABS(Mean_high-Mean_low) .
Two independent assays were run.

For data set [2], the system named is normal diploid human fibroblasts (MRC-5 pd30). As to the kind of experiment: in vitro. The class given is cell-based. As for the experimental part:
(§2) Cells were plated and incubated overnight to allow them to adhere as monolayers. A working stock of each test compound was transferred to an intermediate 384-well plate and pre-diluted with minimum essential media (MEM). The pre-diluted stocks were then transferred onto the cell monolayers, and the plates were incubated for 68 h. Resazurin, to a final concentration of 50 μM was added to each well, after which plates were incubated for a further 3 h and measured for fluorescence (λ ex = 528 nm, λ em = 590 nm).
as §1
(§3) All EC50 Curve fitting was undertaken using XLFit version 4.2 using Model 205 with the following 4 parametric equation: y=A+B-A/1+[…], where A = % inhibition at bottom, B = % inhibition at top, C = EC50, D = slope, x = inhibitor concentration and y = % inhibition.

For data set [3] the test system is unchanged. The conditions noted are these: read-out: MRC5 EC50, cited from earlier work.
For data set [4], the system named is Plasmodium falciparum 3D7. The conditions noted are these: Table 7, MMV04 SAR; data reported previously ref 24, 25; read-out: P. fal. EC50; cited from earlier work.
A further data set can be described thus: in vitro. The data set is classed as cell-based. The conditions noted are these: human, MRC-5 pd30 normal diploid fibroblasts (monolayers); Table 8, MMV03 SAR; read-out: MRC5 EC50. As for the experimental part: as §2, §1, §3
The mark [5] stands for this setting: C.I. 95%, n = 2, read-out: EC50 Radiometric ([3H]-hypoxanthine).
Setting [6] is: read-out: EC50 Fluorescent (SYBR Green), C.I. 95%, n = 4.
The mark [7] stands for this setting: read-out: EC50 P. falciparum, Table 4, primary hits of kinase library.
The mark [8] stands for this setting: read-out: P. fal. EC50, Table 6, MMV02 SAR.
The mark [9] stands for this setting: Table 4, primary hits of kinase library, read-out: EC50 MRC5 cells.
The mark [10] stands for this setting: Table 6, MMV02 SAR, read-out: MRC5 EC50.
Where [11] appears, read: read-out: P. fal. EC50, Table 8, MMV03 SAR.
Setting [12] is: Table 8, MMV03 SAR, read-out: MRC5 EC50.
Where [13] appears, read: read-out: P. fal. EC50, Table 7, MMV04 SAR.
Setting [14] is: Table 7, MMV04 SAR, read-out: MRC5 EC50.
[15] abbreviates: Plasmodium falciparum, 3D7, read-out: P. fal. EC50.

The term EC50 denotes the midpoint of the concentration-response curve. With `Fc1ccc(-c2cc(Nc3ccncc3)nc(-c3ccccc3)n2)cc1` [Compound A0002], the half-maximal effective concentration (EC50) in the data set on Plasmodium falciparum (setting [5]) is 60 ± 70 nM; in data set [1] (setting [6]), 230 ± 40 nM; in data set [1] (setting [7]), 200 nM; in data set [1] (setting [8]) it was 200 nM; in data set [2] (setting [9]), 6 µM; in data set [2] (setting [10]), 6 µM.

For `O=C(Nc1cccnc1)c1cn(-c2ccccc2)nc1-c1cccs1` [Compound A0003], the EC50 is 150 ± 250 nM in the data set with Plasmodium falciparum (setting [5]); 590 ± 120 nM in data set [1] (setting [6]); 600 nM in data set [1] (setting [7]); 300 nM in data set [1] (setting [11]); more than 15 µM in data set [2] (setting [9]); more than 50 µM in data set [2] (setting [12]). Further, in data set [1] (Table 8, MMV03 SAR), the “LLE (ligand-lipophilicity efficiency)” value is recorded as 3.2.

In the case of `O=C(Nc1cccnc1)c1cc(-c2cccnc2)nc2ccc(Br)cc12` [Compound A0004], the EC50 in the data set on Plasmodium falciparum (setting [5]) is 410 ± 470 nM; in data set [1] (setting [6]) it was 700 ± 70 nM; in data set [1] (setting [7]) it was 700 nM; in data set [1] (setting [13]) it was 700 nM; in data set [2] (setting [9]), more than 15 µM; in data set [2] (setting [14]), more than 15 µM.

On to `Cc1cc(NC(=O)c2cn(-c3ccccc3)nc2-c2cccs2)[nH]n1` [Compound A0012], for which the “LLE (ligand-lipophilicity efficiency)” value in data set [1] (Table 8, MMV03 SAR) turned out to be 1.9. Besides, the figures for the half-maximal effective concentration (EC50) in data set [1] (setting [11]) and in data set [2] (setting [12]) were 6000 nM and 24 µM, respectively.

`Fc1ccccc1-c1cc(Nc2ccncc2)nc(-c2ccccc2)n1` [Compound A0021]: the EC50 in data set [3] (Table 6, MMV02 SAR, data reported previously ref 23) was more than 50 µM.

Take `FC(F)(F)Oc1ccc(Nc2cc(-c3cccc(C(F)(F)F)c3)nc(-c3ccccc3)n2)cc1` [Compound A0022]: in data set [1] (MMV02 series), the “activity against P. falciparum relative to A0002” value was “tenfold less active”. The EC50 is 2300 nM in data set [1] (setting [8]) and 11 µM in data set [2] (setting [10]).

Consider `CCOC(=O)c1ccc(NC(=O)c2cc(-c3cccnc3)nc3ccc(Cl)cc23)cc1` [Compound A0024], for which the values for the concentration for a half-maximal effect (EC50) in data set [1] (setting [13]) and in data set [2] (setting [14]) were 200 nM and 18 µM, respectively.

Take `Cc1ccc(-c2cc(C(=O)Nc3cccnc3)c3cc(Br)ccc3n2)cc1` [Compound A0031]: the EC50 in data set [4] is 120 nM; in data set [3] (Table 7, MMV04 SAR, data reported previously ref 24, 25), 20 µM. Besides, the “activity against P. falciparum relative to A0004” value in data set [1] (MMV04 series) was “fivefold more active”.

For `O=C(Nc1nc2ccccc2[nH]1)c1cn(-c2ccccc2)nc1-c1cccnc1` [Compound A0032], the “LLE (ligand-lipophilicity efficiency)” value in data set [1] (Table 8, MMV03 SAR) is given as 2.9. Also, the EC50 in data set [1] (setting [11]) is 500 nM; in data set [2] (setting [12]), 21 µM.

In the case of `O=C(Nc1ccncc1)c1cn(-c2ccccc2)nc1-c1cccs1` [Compound A0033], in data set [1] (Table 8, MMV03 SAR), the “LLE (ligand-lipophilicity efficiency)” value is 2.9. For the same compound, the EC50 came to 700 nM in data set [1] (setting [11]) and 39 µM in data set [2] (setting [12]).

Regarding `O=C(Nc1nc2ccccc2[nH]1)c1cn(-c2ccccc2)nc1-c1cccs1` [Compound A0034], the EC50 in data set [1] (setting [15]) came to 800 nM. Further, the “LLE (ligand-lipophilicity efficiency)” value in data set [1] (Table 8, MMV03 SAR) is reported as 2. In addition, the EC50 at 68 h in the data set “in vitro” worked out at 13 µM.

For `CC(C)CCNC(=O)c1cn(-c2ccccc2)nc1-c1cccs1` [Compound A0036], the “LLE (ligand-lipophilicity efficiency)” value in data set [1] (Table 8, MMV03 SAR) is 1.1. Moreover, the half-maximal effective concentration (EC50) was 18000 nM in data set [1] (setting [11]) and 50 µM in data set [2] (setting [12]).

For the compound `CCN(CC)CCNC(=O)c1cn(-c2ccccc2)nc1-c1cccs1` [Compound A0037], the “LLE (ligand-lipophilicity efficiency)” value in data set [1] (Table 8, MMV03 SAR) is reported as 2.7. Further, the EC50 in data set [1] (setting [11]) turned out to be 13000 nM; in data set [2] (setting [12]), 18 µM.

With `O=C(Nc1cccnc1)c1cn(-c2ccccc2)nc1-c1cccnc1` [Compound A0038], the “LLE (ligand-lipophilicity efficiency)” value in data set [1] (Table 8, MMV03 SAR) stood at 3.2. Also, the results for the EC50 in data set [1] (setting [11]) and in data set [2] (setting [12]) were 2000 nM and 18 µM, respectively.

Consider `CC(C)c1nn(-c2ccccc2)cc1C(=O)Nc1cccnc1` [Compound A0039], for which the 50% effective concentration (EC50) in data set [1] (setting [15]) worked out at 21000 nM. In addition, in data set [1] (Table 8, MMV03 SAR), the “LLE (ligand-lipophilicity efficiency)” value turned out to be 2.1. The EC50 at 68 h in the data set “in vitro” worked out at 50 µM.

As for `Cc1nn(-c2ccccc2)cc1C(=O)Nc1cccnc1` [Compound A0040], the EC50 in data set [1] (setting [15]) was determined as 10000 nM. Besides, in data set [1] (Table 8, MMV03 SAR), the “LLE (ligand-lipophilicity efficiency)” value worked out at 2.8. Moreover, the EC50 at 68 h in the data set “in vitro” was 50 µM.

Turning to `N#Cc1ccc(-n2cc(C(=O)Nc3nc4ccccc4[nH]3)c(-c3cccnc3)n2)cc1` [Compound A0041], the “LLE (ligand-lipophilicity efficiency)” value in data set [1] (Table 8, MMV03 SAR) is reported as 3.2. The EC50 in data set [1] (setting [11]) came out at 400 nM; in data set [2] (setting [12]), 15 µM.

With `O=C(Nc1nc2ccccc2[nH]1)c1cn(-c2ccc(F)cc2)nc1-c1cccnc1` [Compound A0042], in data set [1] (Table 8, MMV03 SAR), the “LLE (ligand-lipophilicity efficiency)” value was determined as 2.8. Also, the EC50 in data set [1] (setting [11]) came out at 600 nM; in data set [2] (setting [12]) it was 14 µM.

`CC(C)(C)n1cc(C(=O)Nc2nc3ccccc3[nH]2)c(-c2cccnc2)n1` [Compound A0043]: in data set [1] (setting [15]), the EC50 amounted to 14000 nM. In addition, the “LLE (ligand-lipophilicity efficiency)” value in data set [1] (Table 8, MMV03 SAR) worked out at 1.2. Besides, the EC50 at 68 h in “in vitro” is more than 50 µM.

For `Cn1cc(C(=O)Nc2cccnc2)c(-c2cccs2)n1` [Compound A0044], the half-maximal effective concentration (EC50) in data set [1] (setting [15]) was more than 50000 nM. Further, in data set [1] (Table 8, MMV03 SAR), the “LLE (ligand-lipophilicity efficiency)” value was found to be 2. For the same compound, the EC50 at 68 h in the data set “in vitro” is more than 50 µM.

With `COc1cc(NC(=O)c2cc(-c3cccnc3)nc3ccc(Br)cc23)cc(OC)c1` [Compound A0410], the EC50 is 740 nM in data set [1] (setting [13]) and more than 50 µM in data set [2] (setting [14]).

Consider `O=C(Nc1cccnc1)c1cc(-c2cccnc2)nc2ccc(Cl)cc12` [Compound A0421], for which the figures for the EC50 in data set [1] (setting [13]) and in data set [2] (setting [14]) were 380 nM and more than 50 µM, respectively.

In the case of `OC(c1cc(C(F)(F)F)nc2c(C(F)(F)F)cccc12)C1CCCCN1` (stereo not shown) [Mefloquine, reference compound], the EC50 in the data set with Plasmodium falciparum (Plasmodium falciparum, [3H]-hypoxanthine incorporation assay, read-out: EC50) is 7 to 10 nM; in data set [1] (Plasmodium falciparum, 3D7), 48 ± 4 nM.

(Values after paper PMC5678585, “Screening a protein kinase inhibitor library against Plasmodium falciparum” (Malaria Journal, 2017).)
